One data set has as its system PC-3. In words: Antiproliferative activity against human PC-3 cells assessed as reduction in cell growth incubated for 5 days by MTT assay. The note with it: PC-3, 120 h. It is filed as functional, cell-based.
In the next data set the test system is KB 3-1. In words: Antiproliferative activity against human KB-3-1 cells assessed as reduction in cell growth incubated for 5 days by MTT assay. It is filed as functional, cell-based. The note with it: KB 3-1, 120 h. In general terms: Tetrazolium assays rely on reduction of a dye to a coloured formazan, in cell work by metabolically active cells.
The test system of a further data set is A549. Put plainly: Antiproliferative activity against human A549 cells assessed as reduction in cell growth incubated for 5 days by MTT assay. Type of data set: functional, cell-based. The note with it: A549, 120 h.
The test system of data set [1] is Candida albicans. Put plainly: Antibiofilm activity against Candida albicans DSM 11225 assessed as increase in biofilm inhibition at 125 microg/ml incubated for 24 hrs by crystal violet staining based plate reader analysis relative to control. Type of data set: functional. On the set-up: scale not given: the % may be the effect or the level left. Conditions: dose 125 µg/ml.

Data set [2] in a line: Cytotoxicity against mouse L929 cells assessed as reduction in cell viability incubated for 5 days by MTT assay. Type of data set: toxicity, cell-based.
In the next data set the test system is Bacillus subtilis. Put plainly: Antibacterial activity against Bacillus subtilis DSM 10 incubated overnight by serial dilution assay. It is filed as functional.
For data set [3], the system named is Staphylococcus aureus. Put plainly: Antibacterial activity against Staphylococcus aureus DSM 346 incubated overnight by serial dilution assay. Type of data set: functional.
In another data set the test system is MCF7. In words: Antiproliferative activity against human MCF7 cells assessed as reduction in cell growth incubated for 5 days by MTT assay. Type of data set: functional, cell-based. Conditions: MCF7, 120 h.
The test system of data set [4] is Staphylococcus aureus. In words: Antibiofilm activity against Staphylococcus aureus DSM 1104 assessed as increase in biofilm inhibition at 250 ug/ml incubated for 24 hrs by crystal violet staining based plate reader analysis relative to control. It is filed as functional. On the set-up: scale not given: the % may be the effect or the level left. Conditions: dose 250 µg/ml.

For the next data set, the system named is A-431. In words: Antiproliferative activity against human A-431 cells assessed as reduction in cell growth incubated for 5 days by MTT assay. Type of data set: functional, cell-based. Conditions: A-431, 120 h.
A further data set deals with SK-OV-3. In words: Antiproliferative activity against human SK-OV-3 cells assessed as reduction in cell growth incubated for 5 days by MTT assay. It is filed as functional, cell-based. Conditions: SK-OV-3, 120 h.
The test system of data set [5] is Candida albicans. In words: Antibiofilm activity against Candida albicans DSM 11225 assessed as increase in biofilm inhibition at 250 ug/ml incubated for 24 hrs by crystal violet staining based plate reader analysis relative to control. Type of data set: functional. On the set-up: scale not given: the % may be the effect or the level left. The note with it: dose 250 µg/ml.

In brackets after ≈: the same amount, converted by molar mass.

As to `C/C(=C\CC/C(C)=C/CO[C@@H]1O[C@H](CO)[C@@H](O)[C@H](O)[C@@H]1O)CC/C=C(\C)CCCC(C)(O)CCCC(C)(O)CCCC(C)(O)CCCC(C)(O)CCCC(C)(O)CCC(O)C(C)(C)O` (some centres not stated), the IC50 in the data set on PC-3 was found to be 4.8 µM; in the data set on KB 3-1 it was 8.3 µM; with A549, 4.8 µM; with MCF7, 4.8 µM; with A-431 it was 4.8 µM; with SK-OV-3, 4.8 µM. In addition, the Activity in the data set with Candida albicans [1] is 66%; in the data set on Staphylococcus aureus [4] it was 85%; with Candida albicans [5] it was 71%. Moreover, the IC50 at 5 days in data set [2] was 8.1 µM. Further, the MIC worked out at 16.6 µg/mL (≈ 18.1 µM) against Bacillus subtilis and 33.3 µg/mL (≈ 36.3 µM) in the data set on Staphylococcus aureus [3].

The IC50 is the concentration at which inhibition is half-maximal. As a reminder, the MIC is the lowest concentration that inhibits growth of the organism.

(Values after ChEMBL document CHEMBL5357060, “Cytotoxic Polyhydroxy-Isoprenoids from Neodidymelliopsis negundinis” (J Nat Prod, 2024).)
